Source: publication PMC12300325, “Antimicrobial and Anti-Inflammatory Activity of N-(2-Bromo-phenyl)-2-hydroxy-benzamide Derivatives and Their Inclusion Complexes” (Pharmaceutics, 2025)
Like-named read-outs stand apart in the source and are kept apart here.

Biological target: trypsin (Sus scrofa, UniProt P00761)
Assay: casein digestion protease inhibition assay, absorbance at […] nm
Type: biochemical
[1] = read-out: IC50 (mg/mL) * (converted)

Chain of trypsin (P00761 9-231): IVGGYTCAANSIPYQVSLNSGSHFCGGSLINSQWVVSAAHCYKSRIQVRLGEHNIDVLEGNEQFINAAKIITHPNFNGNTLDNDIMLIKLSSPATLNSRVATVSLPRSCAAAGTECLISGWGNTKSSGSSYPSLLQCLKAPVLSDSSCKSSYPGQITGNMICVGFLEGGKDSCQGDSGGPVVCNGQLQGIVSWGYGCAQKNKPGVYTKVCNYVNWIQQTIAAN

| IC50 [1] [µM] | Structure (SMILES) | IC50 [µM] |
| --- | --- | --- |
| 115 | CCOC(=O)COc1ccccc1C(=O)Nc1ccccc1Br [EE, [2-(2-bromophenylcarbamoyl)phenoxy]acetic acid ethyl ester] |  |
|  | CC(=O)Oc1ccccc1C(=O)O [acetylsalicylic acid, reference compound] | 2250 |
| 102 | O=C(COc1ccccc1C(=O)Nc1ccccc1Br)NN=Cc1cc(Br)ccc1O [HN, 2-(5-bromo-2-hydroxy-benzylidene-hydrazinocarbonylmethoxy)-N-(2-bromo-phenyl)-benzamide] |  |
| 171 | NNC(=O)COc1ccccc1C(=O)Nc1ccccc1Br [HD, N-(2-bromo-phenyl)-2-hydrazinocarbonylmethoxy-benzamide] |  |
